We go through two compounds from US8895504B2, “Amylin derivatives” (priority 2008, dated 2014).

pEC50: −log10 of the molar value. *1 amine or outer side, *2 acyl side, *3 side chain or, on linkers, in order; H or OH if unused. Where a SMILES comes first, the peptide text is derived from it. Bridges are numbered along the chain shown (N, C = ends). The star is where a group is joined. C20 diacid = O=C(O)CCCCCCCCCCCCCCCCCCC(=O)*; γGlu = O=C(O)[C@H](CCC(=O)[*:2])N[*:1]

Data set [1] is described as follows: Assay (V) PK - determination of T½ in mini-pig. Conditions: minipig, sc; terminal plasma half-life, subcutaneous, approx 2 nmol/kg, male Göttingen mini-pigs. The format is in vivo. On the procedure: Assay (V) PK—Determination OF T½ in Mini-Pig
T½ is the terminal half-life=ln 2/λz of a compound in plasma. λz is the first order rate constant associated with the terminal (log-linear) portion of the plasma concentration-time curve and is estimated by linear regression of time vs. log concentration.
T½ values of the amylin analogues of the invention is determined by pharmacokinetic studies in male Göttingen mini-pigs from Ellegaard Göttingen Minipigs ApS and the principles of laboratory animal care are followed.
An acclimatization period of approximately 6-10 days was allowed before the animals entered the study. At start of the acclimatization period the mini-pigs were about 5 to 12 months old and in the weight range of 7-35 kg. The mini-pigs had two central venous catheters inserted which were used for blood sampling.
The studies were conducted in an animal room which was illuminated to give a cycle of approx 12 hours light and 12 hours darkness. The animals were housed individually.
The animals had free access to domestic quality drinking water during the study, but were typically fasted from overnight before dosing until approx 6-12 hours after dosing. The animals were weighed on arrival and on the days of dosing.
In the present studies the test substances were administered subcutaneously in approx 2 nmol/kg dose. The animals received a single subcutaneous injection. The subcutaneous injection was given on the right side of the neck, approximately 5-7 cm from the ear and 7-9 cm from the middle of the neck. The injections were given with a stopper on the needle, allowing approx 0.5 cm of the needle to be introduced. Each test substance was given to typically three but in some cases two or four animals.
A full plasma concentration-time profile, employing 12-16 sampling points, was obtained from each animal. In example blood samples were collected according to the following schedule:
After subcutaneous administration:
Predose (0), 0.5, 1, 2, 4, 6, 8, 12, 24, 48, 72, 96, 120, 168 and 240 hours after injection. In some cases also additional blood samples up to 288 hours post injection were taken.
At each sampling time, 0.5 to 2 ml of blood was drawn from each animal. The blood samples were taken via the central venous catheter.
The blood samples were collected into EDTA test tubes (i.e. Sarstedt Micro tube 1.3 mL K3E). Blood samples were kept on ice for max 20 min. before centrifugation. Plasma was separated using centrifugation (i.e. at 4° C., 10 min., 1500 G) and was immediately transferred to Micronic tubes. Approximately 200 μl plasma was transferred to each Micronic tube. The plasma was stored at −20° C. until assayed. The plasma samples were assayed for the content of amylin using an ELISA assay.
The plasma concentration-time profiles were analysed by a non-compartmental pharmacokinetic analysis (NCA) using WinNonlin Professional 5.0 (Pharsight Inc., Mountain View, Calif., USA). NCA was performed using the individual plasma concentration-time profiles from each animal. T½ is the terminal half-life=ln 2/λz and was determined from λz, the first order rate constant associated with the terminal (log-linear) portion of the curve, estimated by linear regression of time vs. log concentration.
ELISA Plasma Assay for Amylin Quantification
The human amylin ELISA is a monoclonal antibody-based sandwich immunoassay for determining amylin levels in human plasma. The capture antibody recognizes human amylin, amylin acid (deamidated amylin), a 1-20 fragment of amylin, but not reduced amylin.
The detection antibody binds to reduced or unreduced human amylin but not amylin acid and is complexed with streptavidin-alkaline phosphatase. The substrate, 4-methylumbelliferyl phosphate, is applied to the completed sandwich and the fluorescent signal, monitored at 355 nm/460 nm, is proportional to the amount of amylin present in the sample.

For data set [2], the target named is T1, Amylin 3(a) receptor (human calcitonin receptor (CTa) and RAMP-3) (Homo sapiens, UniProt O60896+P30988).
T1 construct: expressed in transfected cells; host or cells: BHK570 cells, stably transfected with a CRE-luciferase reporter
Nature of the data set: Luciferase assay (III), BHK Amylin 3(a)//CRE-luc cells. The data set is classed as cell-based. Conditions: BHK cells with Amylin 3(a) receptor and CRE luciferase reporter, 4 hours incubation; read-out: Potency Luciferase. Summed up:
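Read-out is CRE-driven luciferase luminescence, taken 30 min after LucLite addition at room temperature. Compounds were incubated 4 h at 37° C in assay medium (10% FBS, 10 mM Hepes, pH 7,4). The cell line is BHK570 co-transfected with human calcitonin receptor CTa and RAMP-3, seeded overnight before use.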

T1 sequence (O60896 24-148): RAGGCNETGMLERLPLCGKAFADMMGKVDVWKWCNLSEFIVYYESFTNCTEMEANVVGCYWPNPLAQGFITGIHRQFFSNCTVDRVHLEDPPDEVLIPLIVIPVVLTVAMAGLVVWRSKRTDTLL
T1 sequence (P30988 25-474): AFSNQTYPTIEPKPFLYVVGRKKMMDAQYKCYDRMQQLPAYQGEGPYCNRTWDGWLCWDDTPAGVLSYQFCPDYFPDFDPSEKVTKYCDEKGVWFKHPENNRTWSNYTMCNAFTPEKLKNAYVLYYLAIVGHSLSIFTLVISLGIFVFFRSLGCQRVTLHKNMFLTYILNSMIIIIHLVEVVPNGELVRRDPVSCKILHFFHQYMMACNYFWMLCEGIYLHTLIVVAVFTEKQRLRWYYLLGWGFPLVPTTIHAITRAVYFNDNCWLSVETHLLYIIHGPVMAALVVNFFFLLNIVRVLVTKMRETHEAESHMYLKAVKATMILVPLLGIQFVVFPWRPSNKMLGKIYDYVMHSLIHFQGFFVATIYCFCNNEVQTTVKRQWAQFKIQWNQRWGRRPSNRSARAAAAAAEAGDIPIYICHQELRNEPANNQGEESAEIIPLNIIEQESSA

In data set [1], `CC[C@H](C)[C@H](NC(=O)[C@@H]1CCCN1C(=O)CNC(=O)[C@H](Cc1ccccc1)NC(=O)[C@H](CC(N)=O)NC(=O)[C@H](CC(N)=O)NC(=O)[C@H](CO)NC(=O)[C@H](CO)NC(=O)[C@H](Cc1c[nH]cn1)NC(=O)[C@H](Cc1c[nH]cn1)NC(=O)[C@H](CC(C)C)NC(=O)[C@H](Cc1ccccc1)NC(=O)[C@H](CC(N)=O)NC(=O)[C@H](C)NC(=O)[C@H](CC(C)C)NC(=O)[C@H](CCCNC(=N)N)NC(=O)[C@H](CCC(N)=O)NC(=O)[C@@H](NC(=O)[C@H](C)NC(=O)[C@@H]1CSSC[C@H](NC(=O)[C@H](Cc2c[nH]cn2)NC(=O)[C@H](Cc2c[nH]cn2)NC(=O)[C@H](Cc2c[nH]cn2)NC(=O)[C@H](CCC(=O)O)NC(=O)CC[C@H](NC(=O)CCCCCCCCCCCCCCCCCCC(=O)O)C(=O)O)C(=O)N[C@@H](CC(N)=O)C(=O)N[C@@H]([C@@H](C)O)C(=O)N[C@@H](C)C(=O)N[C@@H]([C@@H](C)O)C(=O)N1)[C@@H](C)O)C(=O)N[C@@H](CC(C)C)C(=O)N1CCC[C@H]1C(=O)N1CCC[C@H]1C(=O)N[C@H](C(=O)N[C@@H](CC(N)=O)C(=O)N[C@H](C(=O)NCC(=O)N[C@@H](CO)C(=O)N[C@@H](CC(N)=O)C(=O)N[C@H](C(=O)N[C@@H](Cc1ccc(O)cc1)C(N)=O)[C@@H](C)O)C(C)C)[C@@H](C)O` [Example 54, N-alpha-[(S)-4-Carboxy-4-(19-carboxynonadecanoylamino)butyryl]-Glu-His-His-[His1,His17]-pramlintide] ({C20 diacid-γGlu}-EHHHCNTATCATQRLANFLHHSSNNFGPILPPTNVGSNTY-NH2; disulfide 5-10) had a half-life of 53 h. Further, in data set [2], the pEC50 is 10.00.
As to `CC[C@H](C)[C@H](NC(=O)[C@@H]1CCCN1C(=O)CNC(=O)[C@H](Cc1ccccc1)NC(=O)[C@H](CC(N)=O)NC(=O)[C@H](CC(N)=O)NC(=O)[C@H](CO)NC(=O)[C@H](CO)NC(=O)[C@H](Cc1c[nH]cn1)NC(=O)[C@H](Cc1c[nH]cn1)NC(=O)[C@H](CC(C)C)NC(=O)[C@H](Cc1ccccc1)NC(=O)[C@H](CC(N)=O)NC(=O)[C@H](C)NC(=O)[C@H](CC(C)C)NC(=O)[C@H](CCCNC(=N)N)NC(=O)[C@H](CCC(N)=O)NC(=O)[C@@H](NC(=O)[C@H](C)NC(=O)[C@@H]1CSSC[C@H](NC(=O)[C@H](CCCNC(=N)N)NC(=O)[C@H](CCCNC(=N)N)NC(=O)[C@H](Cc2c[nH]cn2)NC(=O)[C@H](CCC(=O)O)NC(=O)CC[C@H](NC(=O)CCCCCCCCCCCCCCCCCCC(=O)O)C(=O)O)C(=O)N[C@@H](CC(N)=O)C(=O)N[C@@H]([C@@H](C)O)C(=O)N[C@@H](C)C(=O)N[C@@H]([C@@H](C)O)C(=O)N1)[C@@H](C)O)C(=O)N[C@@H](CC(C)C)C(=O)N1CCC[C@H]1C(=O)N1CCC[C@H]1C(=O)N[C@H](C(=O)N[C@@H](CC(N)=O)C(=O)N[C@H](C(=O)NCC(=O)N[C@@H](CO)C(=O)N[C@@H](CC(N)=O)C(=O)N[C@H](C(=O)N[C@@H](Cc1ccc(O)cc1)C(N)=O)[C@@H](C)O)C(C)C)[C@@H](C)O` [Example 55, N-alpha-[(S)-4-Carboxy-4-(19-carboxynonadecanoylamino)butyryl]-Glu-His-Arg-[Arg1,His17]-pramlintide] ({C20 diacid-γGlu}-EHRRCNTATCATQRLANFLHHSSNNFGPILPPTNVGSNTY-NH2; disulfide 5-10), the half-life in data set [1] is 38 h. Further, in data set [2], the pEC50 was 9.70.
